Kd data for 18 compounds are collected here from ChEMBL document CHEMBL3991601, “The target landscape of clinical kinase drugs” (Science, 2017).

The source made the active and inactive calls.

The target in assay [1] is cAMP-dependent protein kinase catalytic subunit gamma (Homo sapiens, UniProt P22612).
A further assay concerns the target DNA topoisomerase 2-beta (Homo sapiens, UniProt Q02880).
The target in assay [2] is Protein kinase C beta type (Homo sapiens, UniProt P05771).
Assay [3] addresses T1, Acyl-CoA dehydrogenase family member 10 (Homo sapiens, UniProt Q6JQN1).
T1 sequence (Q6JQN1 whole entry): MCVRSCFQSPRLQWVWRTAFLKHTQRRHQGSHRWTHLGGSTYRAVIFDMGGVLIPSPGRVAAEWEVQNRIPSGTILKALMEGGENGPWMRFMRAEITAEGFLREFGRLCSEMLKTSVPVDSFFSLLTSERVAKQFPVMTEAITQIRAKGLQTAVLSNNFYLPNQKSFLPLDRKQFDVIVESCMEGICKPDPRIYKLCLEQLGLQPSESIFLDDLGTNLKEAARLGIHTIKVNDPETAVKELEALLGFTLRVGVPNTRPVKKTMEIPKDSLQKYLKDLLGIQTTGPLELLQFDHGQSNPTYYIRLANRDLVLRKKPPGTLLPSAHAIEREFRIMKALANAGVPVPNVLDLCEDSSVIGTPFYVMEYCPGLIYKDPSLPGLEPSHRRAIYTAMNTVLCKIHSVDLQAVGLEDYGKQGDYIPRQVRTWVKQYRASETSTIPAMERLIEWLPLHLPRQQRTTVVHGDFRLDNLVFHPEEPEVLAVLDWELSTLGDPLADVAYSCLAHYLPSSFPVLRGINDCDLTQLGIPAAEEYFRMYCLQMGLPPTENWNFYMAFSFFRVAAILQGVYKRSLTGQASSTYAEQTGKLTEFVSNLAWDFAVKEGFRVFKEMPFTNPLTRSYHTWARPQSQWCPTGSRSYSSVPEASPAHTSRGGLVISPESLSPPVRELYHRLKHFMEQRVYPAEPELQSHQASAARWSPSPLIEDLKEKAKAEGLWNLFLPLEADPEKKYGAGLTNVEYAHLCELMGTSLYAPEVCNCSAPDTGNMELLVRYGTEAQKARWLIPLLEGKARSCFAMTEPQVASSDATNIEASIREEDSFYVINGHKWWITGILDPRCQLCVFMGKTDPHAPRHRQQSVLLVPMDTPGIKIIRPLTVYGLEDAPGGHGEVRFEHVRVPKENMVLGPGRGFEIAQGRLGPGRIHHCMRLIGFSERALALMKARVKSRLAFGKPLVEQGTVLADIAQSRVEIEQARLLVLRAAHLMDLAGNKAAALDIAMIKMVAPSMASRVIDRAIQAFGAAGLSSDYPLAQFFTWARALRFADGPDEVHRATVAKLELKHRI

The target in the next assay is T2, Ephrin type-B receptor 4 (Homo sapiens, UniProt P54760).
T2 sequence (P54760 whole entry): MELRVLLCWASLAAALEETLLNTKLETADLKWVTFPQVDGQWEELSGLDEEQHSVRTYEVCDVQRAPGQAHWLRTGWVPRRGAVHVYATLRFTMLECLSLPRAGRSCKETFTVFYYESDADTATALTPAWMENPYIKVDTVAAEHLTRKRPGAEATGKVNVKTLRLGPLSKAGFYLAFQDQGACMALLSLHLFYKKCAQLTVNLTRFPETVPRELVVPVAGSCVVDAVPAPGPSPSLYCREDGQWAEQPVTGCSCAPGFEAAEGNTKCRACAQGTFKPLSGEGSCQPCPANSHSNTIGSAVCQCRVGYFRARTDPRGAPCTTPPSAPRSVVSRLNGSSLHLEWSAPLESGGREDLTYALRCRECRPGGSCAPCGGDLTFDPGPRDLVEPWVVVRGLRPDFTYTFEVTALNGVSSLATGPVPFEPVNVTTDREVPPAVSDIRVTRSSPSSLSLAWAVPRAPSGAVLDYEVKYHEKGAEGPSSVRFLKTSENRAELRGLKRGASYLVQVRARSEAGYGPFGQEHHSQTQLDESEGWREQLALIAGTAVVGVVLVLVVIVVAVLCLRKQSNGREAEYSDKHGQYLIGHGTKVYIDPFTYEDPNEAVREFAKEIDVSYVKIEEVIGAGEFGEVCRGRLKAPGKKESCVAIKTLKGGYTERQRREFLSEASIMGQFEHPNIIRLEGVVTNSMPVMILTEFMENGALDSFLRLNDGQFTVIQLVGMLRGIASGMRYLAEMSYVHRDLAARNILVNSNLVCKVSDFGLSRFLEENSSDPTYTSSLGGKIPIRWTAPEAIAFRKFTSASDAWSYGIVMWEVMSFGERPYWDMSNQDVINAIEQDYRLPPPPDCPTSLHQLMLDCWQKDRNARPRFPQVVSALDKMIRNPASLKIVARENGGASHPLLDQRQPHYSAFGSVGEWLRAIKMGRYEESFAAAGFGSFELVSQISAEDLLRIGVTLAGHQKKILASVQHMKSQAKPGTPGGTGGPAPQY

The target in assay [4] is Protein kinase C delta type (Homo sapiens, UniProt Q05655).
Also: in the data inactive means no Kd found up to 30 µM.

Protein kinase C delta type, sequence (Q05655 whole entry): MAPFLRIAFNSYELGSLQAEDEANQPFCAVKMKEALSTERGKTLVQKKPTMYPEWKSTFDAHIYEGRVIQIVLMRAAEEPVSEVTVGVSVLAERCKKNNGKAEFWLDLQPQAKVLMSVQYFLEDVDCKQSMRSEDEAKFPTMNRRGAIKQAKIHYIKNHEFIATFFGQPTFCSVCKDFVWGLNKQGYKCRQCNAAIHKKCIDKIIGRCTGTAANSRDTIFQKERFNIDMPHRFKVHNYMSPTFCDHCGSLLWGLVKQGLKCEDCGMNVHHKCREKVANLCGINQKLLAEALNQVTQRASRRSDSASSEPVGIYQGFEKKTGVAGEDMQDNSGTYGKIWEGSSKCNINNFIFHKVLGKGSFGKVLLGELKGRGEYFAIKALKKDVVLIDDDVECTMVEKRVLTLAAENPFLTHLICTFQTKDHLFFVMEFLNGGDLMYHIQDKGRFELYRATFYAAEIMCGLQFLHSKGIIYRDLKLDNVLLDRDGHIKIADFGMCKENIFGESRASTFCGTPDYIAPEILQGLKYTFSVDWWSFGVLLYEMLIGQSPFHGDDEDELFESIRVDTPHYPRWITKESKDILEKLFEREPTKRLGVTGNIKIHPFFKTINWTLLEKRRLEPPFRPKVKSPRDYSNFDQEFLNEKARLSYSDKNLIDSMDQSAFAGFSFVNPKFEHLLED
Protein kinase C beta type, sequence (P05771 whole entry): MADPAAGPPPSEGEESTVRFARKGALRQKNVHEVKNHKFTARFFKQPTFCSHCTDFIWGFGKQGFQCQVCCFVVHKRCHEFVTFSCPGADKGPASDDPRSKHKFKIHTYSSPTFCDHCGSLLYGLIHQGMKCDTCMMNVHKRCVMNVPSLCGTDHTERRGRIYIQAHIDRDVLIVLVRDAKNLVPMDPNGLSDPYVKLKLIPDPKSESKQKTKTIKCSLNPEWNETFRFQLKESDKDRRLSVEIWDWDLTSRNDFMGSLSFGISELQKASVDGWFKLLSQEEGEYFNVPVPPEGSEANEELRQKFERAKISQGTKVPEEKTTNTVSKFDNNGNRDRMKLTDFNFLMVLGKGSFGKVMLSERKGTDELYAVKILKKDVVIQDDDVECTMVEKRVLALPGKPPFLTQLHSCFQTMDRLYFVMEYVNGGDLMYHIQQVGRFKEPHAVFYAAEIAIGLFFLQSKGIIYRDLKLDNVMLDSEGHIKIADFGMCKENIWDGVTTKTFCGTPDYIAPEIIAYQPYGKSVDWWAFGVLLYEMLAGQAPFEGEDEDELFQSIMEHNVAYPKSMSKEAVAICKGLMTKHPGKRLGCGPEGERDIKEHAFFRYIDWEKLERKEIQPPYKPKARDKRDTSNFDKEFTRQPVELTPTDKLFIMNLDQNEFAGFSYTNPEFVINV
DNA topoisomerase 2-beta, sequence (Q02880 whole entry): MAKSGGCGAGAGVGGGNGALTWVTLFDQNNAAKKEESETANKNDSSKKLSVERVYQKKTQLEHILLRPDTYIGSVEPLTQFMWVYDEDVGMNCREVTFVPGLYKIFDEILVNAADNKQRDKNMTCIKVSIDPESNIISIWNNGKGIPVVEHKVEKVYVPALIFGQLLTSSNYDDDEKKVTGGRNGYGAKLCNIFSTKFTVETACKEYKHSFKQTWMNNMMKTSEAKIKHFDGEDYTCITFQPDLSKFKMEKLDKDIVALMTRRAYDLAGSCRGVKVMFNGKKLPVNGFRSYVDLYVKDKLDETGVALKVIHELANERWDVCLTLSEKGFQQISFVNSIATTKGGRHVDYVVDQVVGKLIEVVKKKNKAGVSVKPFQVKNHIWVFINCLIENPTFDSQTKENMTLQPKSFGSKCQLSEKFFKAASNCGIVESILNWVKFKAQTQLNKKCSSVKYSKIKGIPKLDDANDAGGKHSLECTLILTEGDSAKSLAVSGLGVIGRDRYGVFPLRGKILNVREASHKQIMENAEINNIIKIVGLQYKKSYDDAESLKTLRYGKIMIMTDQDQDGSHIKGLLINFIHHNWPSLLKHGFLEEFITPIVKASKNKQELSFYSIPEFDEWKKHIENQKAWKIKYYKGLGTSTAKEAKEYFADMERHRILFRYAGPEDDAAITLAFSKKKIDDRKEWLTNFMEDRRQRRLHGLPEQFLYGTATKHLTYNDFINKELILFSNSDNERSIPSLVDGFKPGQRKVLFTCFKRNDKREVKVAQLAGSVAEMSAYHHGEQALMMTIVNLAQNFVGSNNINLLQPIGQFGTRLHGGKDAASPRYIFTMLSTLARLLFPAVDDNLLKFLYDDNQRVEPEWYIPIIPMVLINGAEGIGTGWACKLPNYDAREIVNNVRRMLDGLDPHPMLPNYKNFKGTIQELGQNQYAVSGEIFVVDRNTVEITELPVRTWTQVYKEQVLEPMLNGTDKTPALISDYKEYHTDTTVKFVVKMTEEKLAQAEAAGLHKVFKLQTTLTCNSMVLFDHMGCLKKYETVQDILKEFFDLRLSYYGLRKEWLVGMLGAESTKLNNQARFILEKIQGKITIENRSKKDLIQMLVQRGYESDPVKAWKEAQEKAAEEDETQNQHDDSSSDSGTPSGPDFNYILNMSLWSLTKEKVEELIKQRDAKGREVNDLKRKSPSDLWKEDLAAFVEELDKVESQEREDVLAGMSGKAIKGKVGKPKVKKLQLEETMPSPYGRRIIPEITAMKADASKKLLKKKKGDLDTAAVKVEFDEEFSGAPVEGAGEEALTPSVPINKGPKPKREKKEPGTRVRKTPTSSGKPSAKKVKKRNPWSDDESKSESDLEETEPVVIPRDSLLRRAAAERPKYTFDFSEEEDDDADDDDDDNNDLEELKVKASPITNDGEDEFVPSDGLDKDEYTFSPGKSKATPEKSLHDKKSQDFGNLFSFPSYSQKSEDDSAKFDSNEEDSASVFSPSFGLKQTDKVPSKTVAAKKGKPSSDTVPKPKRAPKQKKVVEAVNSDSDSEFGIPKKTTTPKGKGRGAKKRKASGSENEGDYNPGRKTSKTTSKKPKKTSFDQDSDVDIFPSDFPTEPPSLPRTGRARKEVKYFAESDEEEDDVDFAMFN
cAMP-dependent protein kinase catalytic subunit gamma, sequence (P22612 whole entry): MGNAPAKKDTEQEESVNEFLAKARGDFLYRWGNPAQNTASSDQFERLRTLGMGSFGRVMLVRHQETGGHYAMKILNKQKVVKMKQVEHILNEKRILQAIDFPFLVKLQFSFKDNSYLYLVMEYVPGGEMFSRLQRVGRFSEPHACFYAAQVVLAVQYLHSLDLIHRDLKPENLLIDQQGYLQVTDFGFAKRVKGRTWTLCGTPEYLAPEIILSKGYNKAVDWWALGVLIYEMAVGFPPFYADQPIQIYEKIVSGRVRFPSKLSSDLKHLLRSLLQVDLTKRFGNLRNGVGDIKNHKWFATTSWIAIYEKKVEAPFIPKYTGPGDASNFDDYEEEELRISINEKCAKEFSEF

A word on the Kd: it is the constant that tells how readily two partners part at equilibrium. As to `O[C@H]1CC[C@H](Nc2ncc3nc(Nc4c(F)cc(F)cc4F)n([C@H]4CCOC4)c3n2)CC1` [TANZISERTIB], the Kd (in assay [1]; at DNA topoisomerase 2-beta; in assay [2]; in assay [3]; at Ephrin type-B receptor 4; in assay [4]) was > 30 µM (inactive) in each case.
As for `COc1cccc2cc(-c3nc([C@H]4CC[C@H](C(=O)O)CC4)n4ncnc(N)c34)[nH]c12` [OSI-027], the Kd (in assay [1]; at DNA topoisomerase 2-beta; in assay [2]; in assay [3]; at Ephrin type-B receptor 4; in assay [4]) was > 30 µM (inactive) in each case.
Take `Cn1c(=O)n(-c2ccc(C(C)(C)C#N)cc2)c2c3cc(-c4cnc5ccccc5c4)ccc3ncc21` [DACTOLISIB]: the Kd (in assay [1]; at DNA topoisomerase 2-beta; in assay [2]; in assay [3]; at Ephrin type-B receptor 4; in assay [4]) was > 30 µM (inactive) in each case.
`O=C(O)c1ccc2c(c1)nc(Nc1cccc(Cl)c1)c1ccncc12` [SILMITASERTIB]: the Kd (in assay [1]; on DNA topoisomerase 2-beta; in assay [2]; in assay [3]; at Ephrin type-B receptor 4; in assay [4]) was > 30 µM (inactive) in each case.
For the compound `c1cc(OCCN2CCCCC2)cc(-c2n[nH]c3ccc(-c4nc[nH]n4)cc23)c1` [CC-401], the Kd (in assay [1]; at DNA topoisomerase 2-beta; in assay [2]; in assay [3]; on Ephrin type-B receptor 4; in assay [4]) was > 30 µM (inactive) each time.
With `CNC(=O)c1ccc(Nc2ncc(C(F)(F)F)c(NCc3nccnc3N(C)S(C)(=O)=O)n2)cc1` [DEFACTINIB], the Kd (in assay [1]; on DNA topoisomerase 2-beta; in assay [2]; in assay [3]; on Ephrin type-B receptor 4; in assay [4]) was > 30 µM (inactive) throughout.
On to `CC[C@@](C)(Nc1ccnc(-c2c[nH]c3ncccc23)n1)C(=O)NCC(F)(F)F` [DECERNOTINIB], for which the Kd in assay [1] was > 30 µM (inactive); at DNA topoisomerase 2-beta it was 0.148 µM (active); in assay [2] it was 0.426 µM (active); in assay [3] it was > 30 µM (inactive); on Ephrin type-B receptor 4, > 30 µM (inactive); in assay [4], 0.067 µM (active).
Turning to `O=S(=O)(c1cccc2c(O)nccc12)N1CCCNCC1` [HYDROXYFASUDIL], the Kd in assay [1] was > 30 µM (inactive); at DNA topoisomerase 2-beta, > 30 µM (inactive); in assay [2], > 30 µM (inactive); in assay [3], 3.96 µM (active); at Ephrin type-B receptor 4, > 30 µM (inactive); in assay [4], > 30 µM (inactive).
As to `CN1CCN(c2nc(C3=C(c4c[nH]c5ccccc45)C(=O)NC3=O)c3ccccc3n2)CC1` [SOTRASTAURIN], the Kd was > 30 µM (inactive) in assay [1]; > 30 µM (inactive) on DNA topoisomerase 2-beta; > 30 µM (inactive) in assay [3]; > 30 µM (inactive) on Ephrin type-B receptor 4; 0.005 µM (active) in assay [4].
Turning to `NC(=O)c1ccc(N(C(N)=O)c2c(F)cccc2F)nc1-c1ccc(F)cc1F` [VX-702], the Kd (in assay [1]; on DNA topoisomerase 2-beta; in assay [2]; in assay [3]; at Ephrin type-B receptor 4; in assay [4]) was > 30 µM (inactive) each time.
Regarding `C=CC(=O)Nc1cc(Nc2nccc(-c3cn(C)c4ccccc34)n2)c(OC)cc1N(C)CCN(C)C` [OSIMERTINIB], the Kd (in assay [1]; at DNA topoisomerase 2-beta; in assay [2]; in assay [3]; on Ephrin type-B receptor 4; in assay [4]) was > 30 µM (inactive) each time.
Regarding `C=CCN(/C=C1/C(=O)O[C@H](COC)[C@@]2(C)C1=C(O)C(=O)C1=C2[C@H](OC(C)=O)C[C@]2(C)C(=O)CC[C@@H]12)CC=C` [SONOLISIB], the Kd is 0.007 µM in assay [1]; > 30 µM (inactive) on DNA topoisomerase 2-beta; > 30 µM (inactive) in assay [2]; > 30 µM (inactive) in assay [3]; > 30 µM (inactive) at Ephrin type-B receptor 4; > 30 µM (inactive) in assay [4].
Regarding `CCN(CCCOc1ccc2c(Nc3cc(CC(=O)Nc4cccc(F)c4)n[nH]3)ncnc2c1)CCOP(=O)(O)O` [BARASERTIB], the Kd (in assay [1]; at DNA topoisomerase 2-beta; in assay [2]; in assay [3]; at Ephrin type-B receptor 4; in assay [4]) was > 30 µM (inactive) in each case.
On to `COCCN1CCN(Cc2ccc(-c3n[nH]c4c3C(=O)c3c(NC(=O)NN5CCOCC5)cccc3-4)cc2)CC1` [RGB-286638], for which the Kd (in assay [1]; at DNA topoisomerase 2-beta; in assay [2]; in assay [3]; at Ephrin type-B receptor 4; in assay [4]) was > 30 µM (inactive) in each case.
`COc1cccc(Nc2ncnn3ccc(CN4CC[C@@H](N)[C@H](O)C4)c23)c1` [BMS-690514]: the Kd in assay [1] was > 30 µM (inactive); at DNA topoisomerase 2-beta, > 30 µM (inactive); in assay [2], > 30 µM (inactive); in assay [3], > 30 µM (inactive); at Ephrin type-B receptor 4 it was > 30 µM (inactive); in assay [4] it was 1.74 µM (active).
`COc1cc(Nc2ncc(F)c(Nc3ccc4c(n3)N(COP(=O)(O)O)C(=O)C(C)(C)O4)n2)cc(OC)c1OC` [FOSTAMATINIB]: the Kd (in assay [1]; on DNA topoisomerase 2-beta; in assay [2]; in assay [3]; at Ephrin type-B receptor 4; in assay [4]) was > 30 µM (inactive) each time.
Turning to `Cn1cc(-c2[nH]c3cc(NC(=O)[C@H](N)C4CCCCC4)cc4c3c2C=NNC4=O)cn1`, the Kd (in assay [1]; at DNA topoisomerase 2-beta; in assay [2]; in assay [3]; at Ephrin type-B receptor 4; in assay [4]) was > 30 µM (inactive) throughout.
Take `CC(C)(O)CC(=O)NCCn1ccc2ncnc(Nc3ccc(Oc4cccc(C(F)(F)F)c4)c(Cl)c3)c21` [TAK-285]: the Kd (in assay [1]; on DNA topoisomerase 2-beta; in assay [2]; on Ephrin type-B receptor 4; in assay [4]) was > 30 µM (inactive) each time.
